Results from patent US4173702A, “7-(5-Amino-5-carboxyvaler-amido)-3-(carbamoyloxymethyl)-7-methoxy-3-cep hem-4-carboxylic acid” (Eli Lilly and Company, priority 1970, dated 1979).
Read-outs that look alike come from different tables or passages of the source.

What was measured:
[1] = tested on: Ascaris lumbricoides var. suum; assay: medicated feed, mice infected with Ascaris ova, lung lesions; type: in vivo; settings: Example 13, mice, 0.05 percent in diet; control 2.66
Text: The feeds were utilized as diets for separate groups of mice, five mice per group. Above twelve hours after initiation of the feeding, the mice were infected with Ascaris lumbricoides var. suum ova. Another group of five mice were fed the non-medicated feed to serve as a control but was similarly infected at the same time with Ascaris lumbricoides var. suum. All groups were fed their respective feed and maintained under normal laboratory conditions for a period of eight days, at which time all mice were taken off feed. On the ninth day, all mice were sacrificed and the lungs examined to determine the presence, and if present, numbers, of lesions of Ascaris lumbricoides var. suum.
Another evaluation was conducted under the procedures reported in Example 11, except that the rates were varied. The results were as follows:
In a further evaluation, the monoammonium salts of A16886I and A16886II were separately evaluated for the control of Ascaris lumbricoides var. suum. The evaluations were conducted in accordance with the procedure reported in Example 11 at a concentration in the diet of 0.05 percent.

solubility = type: physicochemical
Pseudomonas solanacearum = type: in vivo; settings: 0 no control, 4 complete control
Xanthomonas vesicatoria = assay: field trial, bacterial spot control on tomato plants; type: in vivo
Experimental: (§1) A mixture of the monoammonium salt of A16886I and the monoammonium salt of A16886II was tested under field conditions for the control of Xanthomonas vesicatoria (bacterial spot) on mature bearing tomato plants. The mixture of the two salts was dispersed in water at a concentration of 100, 200, or 400 parts per million and applied to the plants at the rate of 75 gallons per acre. Application was made with a CO2 sprayer at 50 psi. Plants were sprayed twice, on successive days; after the second spray had dried, all plants were wounded by sand blasting and then within one minute the plants were inoculated with a bacterial inoculum of Xanthomonas vesicatoria. Three days later, a third spray application of the aqueous formulation of A16886 was made. Readings were made one week and two weeks after the last spray treatment. Controls consisted of groups of plants (1) sand blasted and inoculated; (2) sand blasted only; (3) untreated; and (4) treated with streptomycin (on the same three-day spraying schedule, at a concentration of 100, 200, or 400 parts per million of aqueous solution, using a rate of 75 gallons per acre), sand blasted, and inoculated. The results were as set forth in the following table, in which crop injury is reported on a scale of 0-10, with 0=no injury and 10=dead plants; and control of bacterial spot is reported on a percentage basis.

tomato plants = assay: field trial, crop injury; type: in vivo; settings: 0=no injury, 10=dead plants
Experimental: as §1

[2] = in acetonitrile and other organic solvents

COC1(NC(=O)CCCC(N)C(=O)O)C(=O)N2C(C(=O)O)=C(COC(N)=O)CS[C@@H]21 (stereo partly drawn) [A16886I, 7-(5-amino-5-carboxyvaleramido)-3-(carbamoyloxymethyl)-7-methoxy-3-cephem-4-carboxylic acid]
Average Number of Lung Lesions Per Group [1]: 0.46 | solubility (solubility; [2]): essentially insoluble | solubility (solubility; in lower alkanols): slightly soluble | solubility (solubility; in water): very soluble | Disease Rating (Pseudomonas solanacearum; Example 7, 10 ppm.): 2 | Disease Rating (Pseudomonas solanacearum; Example 7, 100 ppm.): 4 | rating (Pseudomonas solanacearum; Example 8, 100 ppm.): 4 | rating (Pseudomonas solanacearum; Example 8, 200 ppm.): 4 | rating (Pseudomonas solanacearum; Example 8, 400 ppm.): 4

NC(=O)OCC1=C(C(=O)O)N2C(=O)C(NC(=O)CCCC(N)C(=O)O)[C@H]2SC1 (stereo partly drawn) [A16886II, 7-(5-amino-5-carboxyvaleramido)-3-(carbamoyloxymethyl)-3-cephem-4-carboxylic acid]
Average Number of Lung Lesions Per Group [1]: 0.20 | solubility (solubility; [2]): essentially insoluble | solubility (solubility; in lower alkanols): slightly soluble | solubility (solubility; in water): very soluble | Disease Rating (Pseudomonas solanacearum; Example 7, 10 ppm.): 1 | Disease Rating (Pseudomonas solanacearum; Example 7, 100 ppm.): 4

[H]/N=C(/N)N[C@H]1[C@H](O)[C@@H](O)[C@H](O[C@@H]2O[C@@H](C)[C@](O)(C=O)[C@H]2O[C@@H]2O[C@@H](CO)[C@H](O)[C@@H](O)[C@@H]2NC)[C@@H](N/C(N)=N\[H])[C@@H]1O [Streptomycin]
Percent Bacterial Spot Control (Xanthomonas vesicatoria; 100 ppm, First Reading): 83% | Percent Bacterial Spot Control (Xanthomonas vesicatoria; 100 ppm, Second Reading): 57% | Percent Bacterial Spot Control (Xanthomonas vesicatoria; 200 ppm, First Reading): 81% | Percent Bacterial Spot Control (Xanthomonas vesicatoria; 200 ppm, Second Reading): 37% | Percent Bacterial Spot Control (Xanthomonas vesicatoria; 400 ppm, First Reading): 83% | Percent Bacterial Spot Control (Xanthomonas vesicatoria; 400 ppm, Second Reading): 59% | Crop Injury Ratings (tomato plants; 100 ppm, First Reading): 0 | Crop Injury Ratings (tomato plants; 100 ppm, Second Reading): 0 | Crop Injury Ratings (tomato plants; 200 ppm, First Reading): 0 | Crop Injury Ratings (tomato plants; 200 ppm, Second Reading): 0 | Crop Injury Ratings (tomato plants; 400 ppm, First Reading): 0 | Crop Injury Ratings (tomato plants; 400 ppm, Second Reading): 0
